In patent US12226418B2, “Dosing regimen for the treatment of PI3K related disorders” (Incyte Corporation, priority 2018, dated 2025):

Key:
[1] = tested on: relapsed or refractory B-cell malignancies; assay: Efficacy, Compound 1C monotherapy; format: in vivo, human; conditions: for durable response: included QW dosing
Method: The secondary endpoints were efficacy and PK. Efficacy was measured by best overall response rate (ORR), defined as the proportion of patients achieving a partial response (PR) or complete response (CR). Response was evaluated (per investigator's assessment) every 9 weeks based on the Lugano classification of lymphoma response criteria for HL and NHL (Cheson B. D. et al, Journal of Clinical Oncology, 2014; 32(27):3059-3067), the International Working Group on Chronic Lymphocytic Leukemia criteria for chronic lymphocytic leukemia (CLL) (Hallek M. et al, Blood, 2008; 111(12):5446-5456; Cheson B. D. et al, J Clin Oncol, 2012; 30(23):2820-2822)), and the VIth International Workshop on Waldenström Macroglobulinemia response assessment for Waldenström Macroglobulinemia (WM) (Owen R. G. et al, Br J Haematol, 2013; 160(2):171-176). If the patient's response to treatment was assessed by PET and CTI/MRI, then the PET result was used for response endpoints; CT/MRI result was used for an assessment if PET result was not available for the assessment; CT/MRI was used for response endpoints if it was the only form of assessment available for the patient.
(§1) Exploratory endpoints included: duration of response (DOR, duration of time from first response to death or disease progression, whichever occurred first); progression free survival (PFS, duration of time from first study dose to death or disease progression, whichever occurred first); population PK; pharmacodynamic (PD) relationship between PI3Kδ inhibition (as determined by an ex vivo phosphorylated AKT [pAKT] assay).

[2] = tested on: phosphorylated AKT (pAKT; Ser473) in SU-DHL cells; assay: Ex vivo phosphorylated AKT (pAKT) pharmacodynamic assay in patient whole blood; format: cell-based, human; conditions: all Compound 1C doses, up to 6 hours post-dose
Method: Compound 1C was dosed once daily and levels of phosphorylated AKT (pAKT; Ser473) were measured by flow cytometry in SU-DHL cells added to patient whole blood after Compound 1C treatment on day 15 of cycle 1.
as §1

[3] = Clinical pharmacokinetics and food effect, Compound 1C monotherapy; format: in vivo
Method: Patients were assessed on Days 1, 8, and 15 of Cycle 1 and Day 1 (±3) of each subsequent treatment cycle.

[4] = tested on: Pfeiffer cell line (diffuse large B cell lymphoma); assay: Pfeiffer cell proliferation assay; format: cell-based, human; conditions: for IC50: Homo sapiens, Pfeiffer, [3H]-thymidine incorporation
Method: Pfeiffer cell line (diffuse large B cell lymphoma) are purchased from ATCC (Manassas, VA) and maintained in the culture medium recommended (RPMI and 10% FBS). To measure the anti-proliferation activity of the compounds, the Pfeiffer cells are plated with the culture medium (2×10^3 cells/well/per 200 μl) into 96-well ultra-low binding plates (Corning, Corning, NY), in the presence or absence of a concentration range of test compounds. After 3-4 days, [^3H]-thymidine (1 μCi/well) (PerkinElmer, Boston, MA) in PBS is then added to the cell culture for an additional 12 hours before the incorporated radioactivity is separated by filtration with water through GF/B filters (Packard Bioscience, Meridenj, CT) and measured by liquid scintillation counting with a TopCount (Packard Bioscience).

For CCOc1c([C@H](C)n2nc(C)c3c(N)ncnc32)cc(Cl)c(F)c1[C@@H]1CNC(=O)C1.Cl [Compound 1C, (R)-4-(3-((S)-1-(4-amino-3-methyl-1H-pyrazolo[3,4-d]pyrimidin-1-yl)ethyl)-5-chloro-2-ethoxy-6-fluorophenyl)pyrrolidin-2-one hydrochloric acid salt], the CR/CMR ([1]; CLL, N 6) was 0 (0) n (%), the “Not evaluable/ not assessed” value ([1]; CLL, N 6) was 1 (17) n (%) and the ORR ([1]; CLL, N 6) was 2 (33 [4-78]) n (% [95% CI]). For the same molecule, the PD/PMD ([1]; CLL, N 6) was 1 (17) n (%), the PR/PMR ([1]; CLL, N 6) was 2 (33) n (%) and the ORR ([1]; DLBCL) was 30%. The “median duration of response” value ([1]; DLBCL) was 13.5 months, the CR/CMR ([1]; DLBCL ABC, N 2) was 0 (0) n (%) and the “Not evaluable/ not assessed” value ([1]; DLBCL ABC, N 2) was 0 n (%). The ORR ([1]; DLBCL ABC, N 2) was 1 (50 [1-99]) n (% [95% CI]), the PD/PMD ([1]; DLBCL ABC, N 2) was 1 (50) n (%) and the PR/PMR ([1]; DLBCL ABC, N 2) was 1 (50) n (%). For the same molecule, the CR/CMR ([1]; DLBCL GCB, N 19) was 4 (21) n (%), the “Not evaluable/ not assessed” value ([1]; DLBCL GCB, N 19) was 1 (5) n (%) and the ORR ([1]; DLBCL GCB, N 19) was 6 (32 [13-57]) n (% [95% CI]). The PD/PMD ([1]; DLBCL GCB, N 19) was 9 (47) n (%), the PR/PMR ([1]; DLBCL GCB, N 19) was 2 (11) n (%) and the “deep responses (>75% decrease from baseline in target lesion size), patients” value ([1]; DLBCL, 20 evaluable) was 10%. The CR/CMR ([1]; DLBCL, N 23) was 4 (17) n (%), the “Not evaluable/ not assessed” value ([1]; DLBCL, N 23) was 1 (4) n (%) and the ORR ([1]; DLBCL, N 23) was 7 (30 [13-53]) n (% [95% CI]). The PD/PMD ([1]; DLBCL, N 23) was 11 (48) n (%), the PR/PMR ([1]; DLBCL, N 23) was 3 (13) n (%) and the durable response ([1]; DLBCL) was ~19 months. The ORR ([1]; FL) was 71%, the “median duration of response” value ([1]; FL) was “not reached” and the “deep responses (>75% decrease from baseline in target lesion size), patients” value ([1]; FL, 14 evaluable) was 50%. For the same molecule, the CR/CMR ([1]; FL, N 14) was 3 (21) n (%), the “Not evaluable/ not assessed” value ([1]; FL, N 14) was 1 (7) n (%) and the ORR ([1]; FL, N 14) was 10 (71 [42-92]) n (% [95% CI]). The PD/PMD ([1]; FL, N 14) was 2 (14) n (%), the PR/PMR ([1]; FL, N 14) was 7 (50) n (%) and the durable response ([1]; FL) was ~17 months. For the same molecule, the CR/CMR ([1]; HL, N 10) was 0 (0) n (%), the “Not evaluable/ not assessed” value ([1]; HL, N 10) was 1 (10) n (%) and the ORR ([1]; HL, N 10) was 2 (20 [3-56]) n (% [95% CI]). For the same molecule, the PD/PMD ([1]; HL, N 10) was 4 (40) n (%), the PR/PMR ([1]; HL, N 10) was 2 (20) n (%) and the ORR ([1]; MCL) was 67%. For the same molecule, the “median duration of response” value ([1]; MCL) was “not reached”, the “deep responses (>75% decrease from baseline in target lesion size), patients” value ([1]; MCL, 8 evaluable) was 38% and the CR/CMR ([1]; MCL, N 9) was 4 (44) n (%). For the same molecule, the “Not evaluable/ not assessed” value ([1]; MCL, N 9) was 1 (11) n (%), the ORR ([1]; MCL, N 9) was 6 (67 [30-93]) n (% [95% CI]) and the PD/PMD ([1]; MCL, N 9) was 0 (0) n (%). For the same molecule, the PR/PMR ([1]; MCL, N 9) was 2 (22) n (%), the durable response ([1]; MCL) was ≥ 14 months and the ORR ([1]; MZL) was 78%. The “median duration of response” value ([1]; MZL) was 4.4 months, the “deep responses (>75% decrease from baseline in target lesion size), patients” value ([1]; MZL, 7 evaluable) was 57% and the “responses occurring by the first assessment (~9 weeks)” value ([1]; MZL, FL, MCL, DLBCL) was 93%. For the same molecule, the CR/CMR ([1]; MZL, N 9) was 3 (33) n (%), the “Not evaluable/ not assessed” value ([1]; MZL, N 9) was 0 n (%) and the ORR ([1]; MZL, N 9) was 7 (78 [40-97]) n (% [95% CI]). The PD/PMD ([1]; MZL, N 9) was 1 (11) n (%), the PR/PMR ([1]; MZL, N 9) was 4 (44) n (%) and the durable response ([1]; MZL) was ~10 months. The “durable responses among patients receiving QW dosing” value ([1]; QW dosing) was > 6 months, the CR/CMR ([1]; WM, N 1) was 0 (0) n (%) and the “Not evaluable/ not assessed” value ([1]; WM, N 1) was 0 n (%). For the same molecule, the ORR ([1]; WM, N 1) was 1 (100 [3-100]) n (% [95% CI]), the PD/PMD ([1]; WM, N 1) was 0 (0) n (%) and the PR/PMR ([1]; WM, N 1) was 1 (100) n (%). For the same molecule, the “patients who achieved an objective response” value ([1]; all patients with NHL administered 20 mg QD at time of regimen change) was 11 patients, the “objective responses at the first disease assessment” value ([1]; of 11 patients with NHL administered 20 mg QD) was 10 and the “objective responses in patients previously treated with ibrutinib” value ([1]; of the 4 patients with MCL) was 2 patients. For the same molecule, the “deep responses, patients” value ([1]; relapsed or refractory B-cell NHL, 10 mg QD to 45 mg QD) was > 30%, the “inhibition of pAKT in whole blood” value [2] was “near-maximal inhibition” and the “Cmax above the IC90 for pAKT inhibition” value ([3]; 20 mg QD) was 16 fold. The “Ctrough above the IC90 for pAKT inhibition” value ([3]; 20 mg QD) was 2 fold, the “decrease in AUC with high fat meal” value ([3]; food effect, 12 patients) was 10% and the “decrease in Cmax with high fat meal compared with fasted state” value ([3]; food effect, 12 patients) was 42%. For the same molecule, the “fed versus fasted geometric mean ratio for AUC” value ([3]; food effect, 12 patients) was 0.90 and the “food effect analysis, timing of meals” value ([3]; human, in vivo) was “may be dosed without regard to timing of meals”.

For CCOc1c(C(C)n2nc(C)c3c(N)ncnc32)cc(Cl)c(F)c1C1CNC(=O)O1 (single isomer, unassigned) [Example 2C, 5-{3-[1-(4-amino-3-methyl-1H-pyrazolo[3,4-d]pyrimidin-1-yl)ethyl]-5-chloro-2-ethoxy-6-fluorophenyl}-1,3-oxazolidin-2-one], the IC50 [4] was ≤ 10 nM.

For CCOc1c(C(C)n2nc(C)c3c(N)ncnc32)cc(Cl)c(F)c1C1CNC(=O)C1 (single isomer, unassigned) [Example 1C], the “sensitivity of Pfeiffer cancer cells to anti-proliferative effects in vitro” value [4] was “sensitive”.

With CCOc1c(C(C)n2nc(C)c3c(N)ncnc32)cc(Cl)c(F)c1C1CNC(=O)C1 (single isomer, unassigned) [Example 1B, 4-{3-[1-(4-amino-3-methyl-1H-pyrazolo[3,4-d]pyrimidin-1-yl)ethyl]-5-chloro-2-ethoxy-6-fluorophenyl}pyrrolidin-2-one] the IC50 [4] was ≤ 10 nM.
